From patent US8293272B2, “Solid pharmaceutical preparation containing levothyroxine and/or liothyronine salts” (Globopharm Pharmazeutische Produktions-und …, priority 2003, dated 2012)

Experiment: accelerated storage stability at 40° C. and 75% relative humidity (active ingredient content)

Structure (SMILES) | activity of the original quantity (160 μg levothyroxine-Na preparation, water factor 0.3, 40° C. and 75% relative humidity, 3 months) [% by weight] | residual activity (160 μg levothyroxine-Na preparation, water factors 0.4 to 0.5, 40° C. and 75% relative humidity, 3 months) [% by weight] | employed quantity still active (combination preparation containing 25 μg liothyronine-Na, water factor 0.25, one month) [% by weight] | content remaining (combination preparation containing 25 μg liothyronine-Na, water factor 0.4 to 0.5, 1 month) [%]
N[C@@H](Cc1cc(I)c(Oc2cc(I)c(O)c(I)c2)c(I)c1)C(=O)[O-].[Na+] [Levothyroxine-Na] | 95.2 | 90.7 |  | 
N[C@@H](Cc1cc(I)c(Oc2ccc(O)c(I)c2)c(I)c1)C(=O)[O-].[Na+] [liothyronine-Na] |  |  | 97.7 | 87.2
